This is an account of results in patent publication US6558435B2, “Reactive crystallization method to improve particle size” (Pfizer, Inc., priority 2000, dated 2003).

Common to all, as to assay type: physicochemical
Data set [1] in a line: Dry particle sizing analysis (SympaTec). How it is done: The crystals were dried in a vacuum oven at 50° C. and 10 inches of Hg with an air bleed for 24 hours. The dried material was sieved through a 30 mesh (600 μm) screen as a means to delump. Differential scanning calorimetry and x-ray diffraction confirmed the complete conversion to the Voriconazole free-base. No unreacted Voriconazole camphorsulfonate was detected.
Specification of product conventionally obtained by jet milling is 90% less than 130 microns and 50% less than 50 microns.

The nature of data set [2]: Particle size analysis (Aerosizer). On the procedure: Flow of neat methanol and ethyl acetate was initiated through their respective jets at 20 ml/min for 5 seconds from separate reservoirs to establish steady state flow. By way of two 3-way valves the solutions of 5,8,14-triazatetracyclo[10.3.1.0^2,11.0^4,9]-hexadeca-2(11),3,5,7,9-pentaene free base solution and (L)-tartaric acid were switched on so they would impinge each other at the same 20 ml/min flow rate. The velocities through the jets were 13.4 meters/sec. After 1 minute of impingement the flows were stopped and the resulting slurry was allowed to age in the agitated receiver for 5 minutes. The slurry was vacuum filtered and dried at 40° C. overnight and delumped through a 500 micron sieve.

Data set [3] in a line: Particle size analysis by Malvern light scattering, hexane as dispersant. The note with it: for D90, 90% of the particles by volume less than / volume mean diameter, D[4,3] / fines (particles below about 1 micron detected): Malvern, hydrochloride monohydrate; for D90, 90% of the particles by volume less than / volume mean diameter, D[4,3]: dried crystals; for particle size distribution compared with batch crystallized and milled sample: impinging jet material vs comparative 15.6 kg sample. On the procedure: X-ray diffraction (XRD) and differential scanning calorimetry (DSC) indicated the correct form of Ziprasidone hydrochloride monohydrate was produced by the impinging jet reactive crystallization process. The dried powder crystals were sieved through a 600 micron sieve as a means to delump. The particles were analyzed by Malvern using hexane as a dispersant.
The crystals were sieved through a 600 micron sieve to delump and the particles were analyzed by Malvern using hexane as a dispersant. […] According to patent EU 0 965 343 A2 (08.06.1999), the most preferred mean particle size of Ziprasidone hydrochloride monohydrates is in the 5-30 micron range obtained through milling operations which the present invention achieves without the need for high intensity milling. The particle sizes stipulated herein and in the claims refer to particle sizes determined with Malvern light scattering.
In a comparative 15.6 kg sample produced by the typical batch crystallization process method followed by milling using a pin mill at 10,000 rpm, the volume mean diameter, D[4,3], was 23.6 microns with 90% of the particles by volume less than 51 microns, while 5.4% of the batch by the volume distribution had particle size less than 1 micron indicating a much greater number of fines. […]

The nature of data set [4]: Particle size of the jet milled seed (method not given). On the procedure:
A receiving vessel contained 250 ml of methanol and 250 ml of ethyl acetate to which 20 milligrams of jet milled 5,8,14-triazatetracyclo[10.3.1.0^2,11.0^4,9]-hexadeca-2(11),3,5,7,9-pentaene (L)-tartrate were added as seed. […] The receiver was equipped with magnetic stirrer to suspend the seed in the methanol-ethyl acetate solvent system. The impinging jet apparatus was submerged in the receiver vessel with both jets having inside diameters of 0.007 inches (ID).

Where a name gives a salt, the structure may show the parent alone.

Regarding `C[C@@H](c1ncncc1F)[C@](O)(Cn1cncn1)c1ccc(F)cc1F` [Example 4, Voriconazole free base], in data set [1], the “50% of particles (D[v,0.50]) less than” value is on record as 18 microns and the “90% of particles (D[v,0.9]) less than” value worked out at 41 microns. In data set [1] (sieved through 30 mesh), this compound returned a volume mean diameter of 22 microns.
`O=C(O)C(O)C(O)C(=O)O.c1cnc2cc3c(cc2n1)C1CNCC3C1` [Example 5, 5,8,14-triazatetracyclo[10.3.1.0^2,11.0^4,9]-hexadeca-2(11),3,5,7,9-pentaene L-tartrate]: in data set [2], the “5% of particles less than” value worked out at 5 microns and the “95% of the particles less than” value is listed as 15 microns. This compound also registered a volume mean diameter in data set [2] (delumped through 500 micron sieve) of 10 microns.
For the compound `O=C1Cc2cc(CCN3CCN(c4nsc5ccccc45)CC3)c(Cl)cc2N1` [Example 3, Ziprasidone hydrochloride monohydrate], in data set [3], the “D90, 90% of the particles by volume less than” value was 210 microns; the “volume mean diameter, D[4,3]” value was 104 microns; the “fines (particles below about 1 micron detected)” value is recorded as “No particles below 1 micron were measured”.
Consider `O=C1Cc2cc(CCN3CCN(c4nsc5ccccc45)CC3)c(Cl)cc2N1` [Example 1, Ziprasidone hydrochloride monohydrate], for which, in data set [3], the “D90, 90% of the particles by volume less than” value is 83 microns; the “volume mean diameter, D[4,3]” value amounted to 43 microns; the “fines (particles below about 1 micron detected)” value was “No particles with diameters of less that 0.9 micron were detected”; the “particle size distribution compared with batch crystallized and milled sample” value is reported as “narrower particle size distribution with fewer fines produced”.
The corresponding values for `O=C1Cc2cc(CCN3CCN(c4nsc5ccccc45)CC3)c(Cl)cc2N1` [Example 2, Ziprasidone hydrochloride monohydrate] are 41 microns, 22.5 microns, “No particles of less that 1.0 micron were detected” and “narrower particle size distribution with fewer fines produced”.
In data set [4], `O=C(O)C(O)C(O)C(=O)O.c1cnc2cc3c(cc2n1)C1CNCC3C1` [seed, 5,8,14-triazatetracyclo[10.3.1.0^2,11.0^4,9]-hexadeca-2(11),3,5,7,9-pentaene (L)-tartrate] displayed a volume mean diameter of 2.7 microns.
